According to patent US20170008921A1, “C-3 NOVEL TRITERPENONE WITH C-28 REVERSE AMIDE DERIVATIVES AS HIV INHIBITORS” (HETERO RESEARCH FOUNDATION, priority 2015, published 2017):
Where two headings read alike, the source gives them in different places.

Assays:
HIV-1 strain 92HT599 = assay: Antiviral activity against HIV-1 strain 92HT599 in MT2 cells (p24 estimation); assay type: cell-based; details: HIV-1 92HT599, ~96 hours
Procedure: MT2 cells were infected with HIV-1 strain 92HT599 (10 TCID 50/30000 cells). The infected cells were plated at the concentration of ˜30,000 cells per well in 96 well plate. Test compound was added to the micro plate in defined format with the final concentration of DMSO (vehicle) is not more than 1%. Incubation was carried out in CO2 incubator for ˜96 hours for viral infection. At the end of incubation period an aliquot from each well was taken for p24 estimation. The quantitation of p24 is an index for antiviral activity of the compound. Percent inhibition was calculated with reference to control values (vehicle controls). p24 estimation was carried out using Advance biosciences kit as per the procedure detailed by supplier.

cells = assay: Cyto-toxicity (MTT assay); assay type: cell-based
pNL4-3 WT = assay: Antiviral activity against pNL4-3 WT strain in MT4 cells (p24 estimation); assay type: cell-based, HIV-1; details: 4 days
Procedure: (§1) MT4 cells were Transfected with HIV-1 Plasmid (pNL4-3-WT & V7A) (Cells were incubating with required number of TCID50 of HIV-1 for 1.5 h at 37° C.). After infection, the infected cells were plated at the concentration of 3×10^4 cells per well in 96 well plate. Test compound was added to the test plate in defined format with the final concentration of DMSO is not more than 1%. Incubation was carried out in CO2 incubator for 4 days for viral infection. At the end of incubation period an aliquot from each well was taken for p24 estimation. p24 estimation was carried out using Advance biosciences kit as per the procedure detailed by supplier.

pNL4-3 V7A = assay: Antiviral activity against pNL4-3 V7A strain in MT4 cells (p24 estimation); assay type: cell-based, HIV-1; details: 4 days
Procedure: as §1

[1] = Single dose oral pharmacokinetic study; assay type: in vivo; details: Mice oral PK @30 mg/kg, plasma, vehicle 10% Solutol+20% PEG
In short: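 Rats or mice dosed orally at 30 mg/kg in 10% Solutol+20% PEG. Acetonitrile precipitation, then LC-MS/MS quantification for PK parameters.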

[2] = Cyto-toxicity (MTT assay); assay type: cell-based
[3] = 0% serum binding assay, read-out: IC50 0% serum
[4] = 40% serum binding assay, read-out: IC50 40% serum

| SMILES | IC50 (HIV-1 strain 92HT599; [3]) [nM] | IC50 (HIV-1 strain 92HT599; [4]) [nM] | viability at 4 days, 0.01 µM [2] [%] | viability at 4 days, 0.1 µM [2] [%] | viability at 4 days, 1 µM [2] [%] | AUC(0-t) ([1]; mouse, read-out: AUC0-t) [µg·h/mL] | Cmax ([1]; mouse, read-out: Cmax) [ng/mL] | further results |
| --- | --- | --- | --- | --- | --- | --- | --- | --- |
| CC(C)C1=C2[C@H]3CC[C@@H]4[C@@]5(C)CC[C@H](OC(=O)[C@H]6C[C@@H](C(=O)O)C6(C)C)C(C)(C)[C@@H]5CC[C@@]4(C)[C@]3(C)CC[C@@]2(NC(=O)C(C)(C)NS(=O)(=O)c2ccc(Cl)cc2)CC1=O [Example 65, (1R,3S)-3-((((3aR,5aR,5bR,7aR,9S,11aR,11bR,13aS)-3a-(2-((4-chlorophenyl)sulfonamido)-2-methylpropanamido)-1-isopropyl-5a,5b,8,8,11a-pentamethyl-2-oxo-3,3a,4,5,5a,5b,6,7,7a,8,91,111,11a,11b,12,13,13a-octadecahydro-2H-cyclopenta[a]chrysen-9-yl)oxy)carbonyl)-2,2-dimethylcyclobutane-1-carboxylic acid] | < 3 | < 50 | – | – | – | – | – | Cytotoxicity % viability (cells; 0.01 μM, MTT, 4 days (Table 3)): 27%; Cytotoxicity % viability (cells; 0.1 μM, MTT, 4 days (Table 3)): 3%; Cytotoxicity % viability (cells; 1 μM, MTT, 4 days (Table 3)): 2%; IC50 (pNL4-3 WT): > 10 nM; IC50 (pNL4-3 V7A): > 50 nM; AUC(0-t) [1]: 145.21 µg·h/mL; Cmax [1]: 7383 ng/mL |
| CC(C)C1=C2[C@H]3CC[C@@H]4[C@@]5(C)CC[C@H](OC(=O)[C@H]6C[C@@H](C(=O)O)C6(C)C)C(C)(C)[C@@H]5CC[C@@]4(C)[C@]3(C)CC[C@@]2(NC(=O)C(C)(C)NC(=O)[C@@H]2CCCN2)CC1=O.Cl [Example 76, (1R,3S)-3-((((3aR,5aR,5bR,7aR,9S,11aR,11bR,13aS)-1-isopropyl-5a,5b,8,8,11a-pentamethyl-3a-(2-methyl-2-((S)-pyrrolidine-2-carboxamido)propanamido)-2-oxo-3,3a,4,5,5a,5b,6,77a,8,9,10,11,11a,11b,12,13,13a-octadecahydro-2H-cyclopenta[a]chrysen-9-yl)oxy)carbonyl)-2,2-dimethylcyclobutane-1-carboxylic acid hydrochloride] | < 3 | 50 to 200 | – | – | – | – | – | Cytotoxicity % viability (cells; 0.01 µM): 59%; Cytotoxicity % viability (cells; 0.1 µM): 6%; Cytotoxicity % viability (cells; 1 µM): 6% |
| CC(C)C1=C2[C@H]3CC[C@@H]4[C@@]5(C)CC[C@H](OC(=O)[C@H]6C[C@@H](C(=O)O)C6(C)C)C(C)(C)[C@@H]5CC[C@@]4(C)[C@]3(C)CC[C@@]2(NC(=O)C(C)(C)N)CC1=O.Cl [Example 74, (1R,3S)-3-((((3aR,5aR,5bR,7aR,9S,11aR,11bR,13aS)-3a-(2-amino-2-methylpropanamido)-1-isopropyl-5a,5b,8,8,11a-pentamethyl-2-oxo-3,3a,4,5,5a,5b, 6,7,7a,8,9,10,1111a,11b,12,13,13a-octadecahydro-2H-cyclopenta[a]chrysen-9-yl)oxy)carbonyl)-2,2-dimethylcyclobutane-1-carboxylic acid hydrochloride] | < 3 | < 50 | – | – | – | – | – | Cytotoxicity % viability (cells; 0.01 µM): 61%; Cytotoxicity % viability (cells; 0.1 µM): 14%; Cytotoxicity % viability (cells; 1 µM): 19% |
| Cc1ccc(C(=O)NC2(C(=O)N[C@@]34CC[C@]5(C)[C@H](CC[C@@H]6[C@@]7(C)CC[C@H](OC(=O)[C@H]8C[C@@H](C(=O)O)C8(C)C)C(C)(C)[C@@H]7CC[C@]65C)C3=C(C(C)C)C(=O)C4)CC2)cc1 [Example 40, (1R,3S)-3-((((3aR,5aR,5bR,7aR,9S,11aR,11bR,13aS)-1-isopropyl-5a,5b,8,8,11a-pentamethyl-3a-(1-(4-methylbenzamido)cyclopropane-1-carboxamido)-2-oxo-3,3a,4,5,5a,5b,6,7,7a,8,9,10,11,11a,11b,12,13,13a-octadecahydro-2H-cyclopenta[a]chrysen-9-yl)oxy)carbonyl)-2,2-dimethylcyclobutane-1-carboxylic acid] | – | – | 26 | 2 | 1 | 343 | 20300 | – |
| CC(C)C1=C2[C@H]3CC[C@@H]4[C@@]5(C)CC[C@H](OC(=O)[C@H]6C[C@@H](C(=O)O)C6(C)C)C(C)(C)[C@@H]5CC[C@@]4(C)[C@]3(C)CC[C@@]2(NC(=O)C(C)(C)NC(=O)c2ccccc2)CC1=O [Example 3, (1R,3S)-3-((((3aR,5aR,5bR,7aR,9S,11aR,11bR,13aS)-3a-(2-benzamido-2-methylpropanamido)-1-isopropyl-5a,5b,8,8,11a-pentamethyl-2-oxo-3,3a,4,5,5a, 5b,6,7,7a,8,9,10,11,11a,11b,12,13,13a-octadecahydro-2H-cyclopenta[a]chrysen-9-yl)oxy)carbonyl)-2,2-dimethylcyclobutane-1-carboxylic acid] | – | – | 32 | 13 | 7 | 545 | 29600 | – |
| CC(C)C1=C2[C@H]3CC[C@@H]4[C@@]5(C)CC[C@H](OC(=O)[C@H]6C[C@@H](C(=O)O)C6(C)C)C(C)(C)[C@@H]5CC[C@@]4(C)[C@]3(C)CC[C@@]2(NC(=O)C2(NC(=O)c3ccc(Cl)cc3)CCCC2)CC1=O [Example 46, (1R,3S)-3-((((3aR,5aR,5bR,7aR,9S,11aR,11bR,13aS)-3a-(1-(4-chlorobenzamido)cyclopentane-1-carboxamido)-1-isopropyl-5a,5b,8,8,11a-pentamethyl-2-oxo-3,3a,4,5,5a,5b,6,7,7a,8,9,10,11,11a,11b,12,13,13a-octadecahydro-2H-cyclopenta[a]chrysen-9-yl)oxy)carbonyl)-2,2-dimethylcyclobutane-1-carboxylic acid] | – | – | 52 | 12 | 4 | 836 | 29500 | – |
| CC(C)C1=C2[C@H]3CC[C@@H]4[C@@]5(C)CC[C@H](OC(=O)[C@H]6C[C@@H](C(=O)O)C6(C)C)C(C)(C)[C@@H]5CC[C@@]4(C)[C@]3(C)CC[C@@]2(NC(=O)C(C)(C)NC(=O)c2cc(C(C)C)n[nH]2)CC1=O [Example 17, (1R,3S)-3-((((3aR,5aR,5bR,7aR,9S,11aR,11bR,13aS)-1-isopropyl-3a-(2-(3-isopropyl-1H-pyrazole-5-carboxamido)-2-methylpropanamido)-5a,5b,8,8, 11a-pentamethyl-2-oxo-3,3a,4,5,5a,5b,6,7,7a,8,9,10,11,11a,11b,12,13,13a-octadecahydro-2H-cyclopenta[a]chrysen-9-yl)oxy)carbonyl)-2,2-dimethylcyclobutane-1-carboxylic acid] | – | – | 26 | – | – | 333 | 28600 | viability at 4 days, 0.001 µM [2]: 81%; viability at 4 days, 0.003 µM [2]: 62% |
| Cc1nc(C)c(C(=O)NC(C)(C)C(=O)N[C@@]23CC[C@]4(C)[C@H](CC[C@@H]5[C@@]6(C)CC[C@H](OC(=O)[C@H]7C[C@@H](C(=O)O)C7(C)C)C(C)(C)[C@@H]6CC[C@]54C)C2=C(C(C)C)C(=O)C3)s1 [Example 14, (1R,3S)-3-((((3aR,5aR,5bR,7aR,9S,11aR,11bR,13aS)-3a-(2-(2,4-dimethylthiazole-5-carboxamido)-2-methylpropanamido)-1-isopropyl-5a,5b,8,8,11a-pentamethyl-2-oxo-3,3a,4,5,5a,5b,6,7,7a,8,9,10,11,11a,11b,12,13,13a-octadecahydro-2H-cyclopenta[a]chrysen-9-yl)oxy)carbonyl)-2,2-dimethylcyclobutane-1-carboxylic acid] | – | – | 44 | 8 | 2 | 377 | 26800 | – |
| Cc1ccc(NC(=O)NC(C)(C)C(=O)N[C@@]23CC[C@]4(C)[C@H](CC[C@@H]5[C@@]6(C)CC[C@H](OC(=O)[C@H]7C[C@@H](C(=O)O)C7(C)C)C(C)(C)[C@@H]6CC[C@]54C)C2=C(C(C)C)C(=O)C3)cn1 [Example 71, (1R,3S)-3-((((3aR,5aR,5bR,7aR,9S,11aR,11bR,13aS)-1-isopropyl-5a,5b,8,811a-pentamethyl-3a-(2-methyl-2-(3-(6-methylpyridin-3-yl)ureido)propanamido)-2-oxo-3,3a,4,5,5a,5b,6,7,7a,8,9,10,11,11a,11b,12,13,13a-octadecahydro-2H-cyclopenta[a]chrysen-9-yl)oxy)carbonyl)-2,2-dimethylcyclobutane-1-carboxylic acid] | – | – | 41 | 5 | 3 | 130 | 19300 | – |
